# Results published in patent US20090291857A1, “METHODS TO IDENTIFY INHIBITORS OF THE UNFOLDED PROTEIN RESPONSE” (THE BOARD OF TRUSTEES OF THE LELAND STANFORD JUNIOR …, priority 2006, published 2009).
# Tests used:
# [1] = test system: JNK1; experiment: JNK1 activation under ER stress; assay type: cell-based, human; conditions: 2.5 μM, 2 hour preincubation, Tm 4 μg/ml 1.5 hrs
# Description: HT1080 cells were exposed to DMSO vehicle (lane 1), irestatin 9389 (2.5 μM; lane 2) for 16 hours or Tm (5 μg/ml; lane 3) for 8 hours. Following treatments, cells were harvested, lysed, and analyzed by immunoblotting using anti-Grp78 antibody (top) or anti-actin (bottom) as a loading control. B. Effect of irestatin 9389 on IRE1α expression and kinase function. HT1080 cells were preincubated for 16 hours with either vehicle or irestatin 9389 (2.5 μM), followed by addition of Tm (5 μg/ml) for the indicated times. Cell lysates were analyzed by Western immunoblotting using anti-IRE1α (bottom) or anti-phospho-IRE1α antibodies (top). C. Effect of irestatins on JNK1 activation under ER stress. HT1080 cells were untreated (lane 1), exposed to TNF-α (10 ng/ml, 10 min), or Tm (4 μg/ml, 1.5 hrs) (lanes 3-8) following a 2 hour preincubation in the presence of vehicle (lane 3) or the indicated irestatins (2.5 μM; lanes 4-8). Lysates were analyzed by Western blot using antisera specific for phospho-JNK1 (top) or total JNK1 (bottom). […] F. Quantification of RNA cleavage kinetics. […] Samples were analyzed as in (E).
# Activation of IRE1α is preceded by ATP binding and autophosphorylation, and the IRE1α kinase is required for endonuclease activity. […] Cells were then harvested at regular intervals, and activation of the IRE1α kinase was assessed by immunoblotting using anti-phospho-IRE1α antisera.
# [2] = Histopathological analysis of major organs; assay type: in vivo, mouse; conditions: three doses, 50 mg/kg
# Description: Complete blood counts (CBC's) and clinical chemistry panels were performed on blood obtained by cardiac puncture after euthanasia with CO2. Gross necropsies were performed, all major viscera were harvested, fixed in 10% buffered neutral formalin, routinely processed for paraffin embedding, and stained with hematoxylin and eosin (H&E). Sections were analyzed by a board-certified veterinary pathologist (DMB).
# Pancreas and liver specimens recovered from mice treated with three doses of either vehicle (top) or irestatin 9389 (50 mg/kg; bottom) were sectioned and stained with hematoxylin and eosin.
# The increased sensitivity of irestatin-treated cells to hypoxic stress in vitro indicate that selective inhibition of IRE1α signaling could impact tumor growth. […] In contrast, XBP-1s was not detected in normal pancreas specimens (0/20), and infrequently observed in chronic pancreatitis (1/29) (FIG. 15). To explore the effects to irestatin 9389 in vivo, we first established animal dosing parameters using real-time bioluminescence imaging of SCID mice that had been implanted subcutaneously (s.c.) with tumor cells stably expressing the XBP-luciferase reporter. […] The XBP-luciferase signal returned to basal levels by 24 hours after treatment. […] (FIG. 16).
smiles,measurement,setting,value
Cc1csc(NC(=O)CSc2nc3c(c(C(F)(F)F)c2C#N)CCC3)n1 [Compound 9389],phosphorylation of JNK1 during Tm-induced ER stress,[1],failed to block the phosphorylation of JNK1
same,histopathology of all major organs versus vehicle,[2],no significant differences
